The source of these data is US6949250B2, “Selective algaecides for control of cyanochloronta” (The United States of America as represented by the …, priority 2002, dated 2005).

Assay [1] relates to O. perornata. Put plainly: Pond efficacy testing of 9,10-anthraquinone using limnocorrals: O. perornata numbers. It is filed as in vivo, Oscillatoria perornata. The settings on record: dissolved in ethanol, unpublished observations. From the text:
(§1) Previous research (K. K. Schrader, M. Q. de Regt, P. D. Tidwell, C. S. Tucker and S. O. Duke, Selective growth inhibition of the musty-odor producing cyanobacterium Oscillatoria cf. chalybea by natural compounds. Bull. Environ. Contam. Toxicol. (1998a), vol. 60, pp. 651-658) has identified several natural compounds from plants that are selectively toxic towards O. perornata.

The subject of a further assay is MIB. Put plainly: Pond efficacy testing of 9,10-anthraquinone using limnocorrals: MIB levels. Type of assay: in vivo. The conditions noted are these: dissolved in ethanol, unpublished observations.
Text: as §1

In assay [2] the test system is O. perornata. The settings on record: cited from earlier work.
Another assay has as its system Oscillatoria perornata. Put plainly: Rapid bioassay screening for selective algicides (LOEC, LCIC). The settings on record: rapid screening; for MIC: read-out: LCIC (lowest-complete-inhibition concentration), Oscillatoria perornata; for minimal effective concentration: read-out: LOEC (lowest-observed-effect concentration), Oscillatoria perornata. Type of assay: cell-based.
Text: (§2) These were screened in the laboratory by the method of Schrader et al. (K. K. Schrader, M. Q. de Regt, C. S. Tucker and S. O. Duke, A rapid bioassay for selective algicides. Weed Technol. (1997), vol. 11, pp. 767-774) for algicidal activity.
(§3) The anthraquinone derivatives were screened for selective toxicity towards Oscillatoria perornata, previously isolated from a Mississippi catfish pond, using the method of Schrader et al. (1997). The green alga Selenastrum capricornutum (obtained from the United States Environmental Protection Agency, Corvallis, Oreg.) was used as the representative green algal species in the bioassay since it is a common species found in southeastern United States catfish ponds. Absorbance readings were graphed, and graphs were used to determine the LOEC (lowest-observed-effect concentration) and the LCIC (lowest-complete-inhibition concentration) for each anthraquinone analog. In addition, a 96-hour 50% inhibition concentration (IC50) was determined for DNA1-19-1 and DNA2-59-1 by using the method described by Schrader et al. (1998b). Stock solutions of DNA1-19-1 and DNA2-59-1 were prepared so that final concentrations screened for 96-hour IC50 determinations were as follows: 1) 0, 0.01, 0.033, 0.1, 0.333, 1.0, 3.3, and 10.0 μM DNA1-19-1 for both O. perornata and S. capricornutum; 2) 0, 0.003, 0.01, 0.033, 0.1, 0.333, 1.0, and 3.333 μM DNA2-59-1 for O. perornata; and 3) 0, 0.1, 0.333, 1.0, 3.333, 10.0, 33.333, and 100.0 μM DNA2-59-1 for S. capricornutum. Estimation of the IC50 was determined by plotting 96-hour absorbance readings against logarithmic dilution values of the anthraquinone analogs. The screening results of the anthraquinone derivatives and commercially available analogs of anthraquinone are presented in Tables 1 and 2, respectively. The results in Table 1 reveal that DNA1-19-1 and DNA2-59-1 are the most promising analogs since these two compounds had the lowest LOEC and LCIC values for O. perornata (10 nM and 100 nM, respectively). Based upon IC50 results in Table 3, DNA2-59-1 appears to be more toxic and selective towards O. perornata than DNA1-19-1.
as §3, with “(A rapid bioassay for selective algicides. Weed Technol. (1997), vol. 11, pp. 767-774).” for “(1997).”, “(K. K. Schradar, M. Q. de Regt, P. D. Tidwell, C. S. Tucker and S. O. Duke, Selective growth inhibition of the musty-odor producing cyanobacterium Oscillatoria cf. chalybea by natural compounds. Bull. Environ. Contam. Toxicol. (1998a), vol.60, pp. 651-658).” for “(1998b).”, “The screening results of the anthraquinone derivatives and commercially available analogs of anthraquinone are presented in Tables 1 and 2, respectively. The results in Table 1 reveal that DNA1-19-1 and DNA2-59-1 are the most promising analogs since these two compounds had the lowest LOEC and LCIC values for O. perornata (10 nM and 100 nM, respectively). Based upon IC50 results in Table 3, DNA2-59-1 appears to be more toxic and selective towards O. perornata than DNA1-19-1.” left out

In assay [3] the test system is Selenastrum capricornutum. Described as above. The settings on record: rapid screening; for MIC: read-out: LCIC (lowest-complete-inhibition concentration), Selenastrum capricornutum. Type of assay: cell-based.
Text: as §2, §3
as §3, with “(A rapid bioassay for selective algicides. Weed Technol. (1997), vol. 11, pp. 767-774).” for “(1997).”, “(K. K. Schradar, M. Q. de Regt, P. D. Tidwell, C. S. Tucker and S. O. Duke, Selective growth inhibition of the musty-odor producing cyanobacterium Oscillatoria cf. chalybea by natural compounds. Bull. Environ. Contam. Toxicol. (1998a), vol.60, pp. 651-658).” for “(1998b).”, “The screening results of the anthraquinone derivatives and commercially available analogs of anthraquinone are presented in Tables 1 and 2, respectively. The results in Table 1 reveal that DNA1-19-1 and DNA2-59-1 are the most promising analogs since these two compounds had the lowest LOEC and LCIC values for O. perornata (10 nM and 100 nM, respectively). Based upon IC50 results in Table 3, DNA2-59-1 appears to be more toxic and selective towards O. perornata than DNA1-19-1.” left out

Values after ≈ are worked out from the molar mass of the structure shown. “Also recorded” adds a separate entry of the source. Where two headings read alike, the source gives them in different places.

As for `O=C1c2ccccc2C(=O)c2ccccc21` [9,10-anthraquinone], in the assay on O. perornata [1], the “reduction of numbers of O. perornata in pond (result in words)” value was “did not effectively reduce”. Also, in the assay with MIB, the “reduction of MIB levels in pond (result in words)” value is on record as “did not effectively reduce”. Besides, the “effect on photosynthesis (result in words)” value in the assay with O. perornata [2] (Schrader et al. 2000) is recorded as “inhibits photosynthesis”. Besides, the “activity / toxicity towards O. perornata in the laboratory (result in words)” value in the assay on O. perornata [2] (previous research (Schrader et al. 1998)) is recorded as “high degree of selective toxicity; also recorded: potent activity”.
As for `CCN(CC)CCCNC(C)c1ccc2c(c1)C(=O)c1ccccc1C2=O` (stereo not drawn) [DNA2-87-1, 2-[1′-Amino-N-(propyl-3″-N,N-diethylamino)ethyl]-9,10-anthraquinone], in the assay with Oscillatoria perornata, the “LCIC (lowest-complete-inhibition concentration), Oscillatoria perornata” value is listed as 100,000 nM and the “LOEC (lowest-observed-effect concentration), Oscillatoria perornata” value is on record as 1,000 nM. Also, in assay [3], the “LCIC (lowest-complete-inhibition concentration), Selenastrum capricornutum” value is on record as 100,000 nM and the “LOEC (lowest-observed-effect concentration), Selenastrum capricornutum” value was 100,000 nM.
As for `CCN(CC)CCCNCc1ccc2c(c1)C(=O)c1ccccc1C2=O.O=P(O)(O)O.O=P(O)(O)O` [DNA2-25-1, 2-[Methylamino-N-(propyl-3′-N,N-diethylaminopropyl)]-9,10-anthraquinone diphosphate], in the assay with Oscillatoria perornata, the MIC was 0.1 µM and the minimal effective concentration is 0.1 µM. Moreover, in assay [3], the “LCIC (lowest-complete-inhibition concentration), Selenastrum capricornutum” value was 10,000 nM and the “LOEC (lowest-observed-effect concentration), Selenastrum capricornutum” value was 10,000 nM.
As for `O=C1c2cccc(S(=O)(=O)O)c2C(=O)c2cccc(S(=O)(=O)O)c21` [anthraquinone-1,5-disulfonic acid, reference compound], the MIC (with Oscillatoria perornata (Planktothrix perornata); in assay [3] (Selenastrum capricornutum)) was above 1000 µM each time.
Consider `O=C1c2ccccc2C(=O)c2c(OCCOCCOCCO)cccc21` [DNA3-15-1, 1-[2-[2-(2-Hydroxyethoxy)ethoxy]ethoxy]-9,10-anthraquinone], for which the MIC in the assay on Oscillatoria perornata (Planktothrix perornata) is 10 µM (≈ 3.56 µg/mL); in assay [3] (Selenastrum capricornutum), above 100 µM. Further, the minimal effective concentration with Oscillatoria perornata (Planktothrix perornata) stood at 10 µM; in assay [3] (Selenastrum capricornutum, read-out: LOEC (lowest-observed-effect concentration), Selenastrum capricornutum), 0.01 µM.
